According to ChEMBL document CHEMBL1201862, “PubChem BioAssay data set” (2004):
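1) Cells in 96-well plates. 2) Compound, 48 h, 5 concentrations. 3) Linear interpolation between surrounding doses. 4) Unreached endpoint = highest concentration. GI50 is the concentration that inhibits growth by half.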 Activity calls are given as the source filed them. Cut-off read from the data, not from the text of the source: active = GI50 up to about 1.1 µM and inactive = higher.

What was measured:
Assay in all cases: DTP human tumour cell line panel, 48 h
SR = tested on: SR
SN12C = tested on: SN12C
SK-MEL-5 = tested on: SK-MEL-5
HOP-62 = tested on: HOP-62
OVCAR-4 = tested on: OVCAR-4
SF-295 = tested on: SF-295
DU-145 = tested on: DU-145
OVCAR-5 = tested on: OVCAR-5
NCI-H460 = tested on: NCI-H460
TK-10 = tested on: TK-10
HT-29 = tested on: HT-29
HCC 2998 = tested on: HCC 2998
RPMI-8226 = tested on: RPMI-8226
MOLT-4 = tested on: MOLT-4
OVCAR-8 = tested on: OVCAR-8
Hs-578T = tested on: Hs-578T
KM12 = tested on: KM12
SNB-19 = tested on: SNB-19
SK-MEL-2 = tested on: SK-MEL-2
T47D = tested on: T47D

Row | Structure (SMILES) | GI50 (SR) | GI50 (SN12C) | GI50 (SK-MEL-5) | GI50 (HOP-62) | GI50 (OVCAR-4) | GI50 (SF-295) | GI50 (DU-145) | GI50 (OVCAR-5) | GI50 (NCI-H460) | GI50 (TK-10) | GI50 (HT-29) | GI50 (HCC 2998) | GI50 (RPMI-8226) | GI50 (MOLT-4) | GI50 (OVCAR-8) | GI50 (Hs-578T) | GI50 (KM12) | GI50 (SNB-19) | GI50 (SK-MEL-2) | GI50 (T47D)
1 | C=CCc1cccc2cc(C(=O)Nc3nc(C45CC6CC(CC(C6)C4)C5)cs3)c(=O)oc12 | 28.9 µM (inactive) | 45.2 µM (inactive) | 40.8 µM (inactive) | 17.8 µM (inactive) | 21 µM (inactive) | 16.3 µM (inactive) | 44.6 µM (inactive) | > 100 µM (inactive) | 29.9 µM (inactive) | 30.8 µM (inactive) | 49.8 µM (inactive) | 33 µM (inactive) | 26.9 µM (inactive) | 34.7 µM (inactive) | 85.9 µM (inactive) | 16.4 µM (inactive) | 28.1 µM (inactive) | 26.1 µM (inactive) |  | 
2 | Cn1nc(/C=C\C(=O)N2CC(CCl)c3c2cc(N)c2ccccc32)cc1/C=C/C(=O)N1CC(CCl)c2c1cc(N)c1ccccc21 (centres undefined) | < 0.01 µM (active) | < 0.01 µM (active) | < 0.01 µM (active) | < 0.01 µM (active) | < 0.01 µM (active) | < 0.01 µM (active) | < 0.01 µM (active) | < 0.01 µM (active) | < 0.01 µM (active) | < 0.01 µM (active) |  | < 0.01 µM (active) |  | < 0.01 µM (active) | < 0.01 µM (active) |  | < 0.01 µM (active) | < 0.01 µM (active) | < 0.01 µM (active) | < 0.01 µM (active)
3 | COc1ccc(-c2nc3ncccn3c2-c2ccc(SC)cc2)cc1 | 0.507 µM (active) | 3.92 µM (inactive) | 0.953 µM (active) | 5.64 µM (inactive) | 8.69 µM (inactive) | 0.989 µM (active) |  | 2.42 µM (inactive) | 2.18 µM (inactive) |  | 3.09 µM (inactive) |  | 2.48 µM (inactive) | 3.7 µM (inactive) | 3.92 µM (inactive) | 1.74 µM (inactive) | 0.453 µM (active) | 1.19 µM (inactive) | 1.32 µM (inactive) | 
4 | O=C(COc1ccc(OCC(=O)N2C(=O)CC(=O)N(c3ccccc3)C2=S)cc1)N1C(=O)CC(=O)N(c2ccccc2)C1=S |  | > 100 µM (inactive) |  |  | 44.4 µM (inactive) | 56.6 µM (inactive) | 55.7 µM (inactive) | > 100 µM (inactive) | 40.9 µM (inactive) | > 100 µM (inactive) | 61.2 µM (inactive) | 97.3 µM (inactive) | 31.1 µM (inactive) | 41.8 µM (inactive) |  |  | 27.4 µM (inactive) | 69.7 µM (inactive) | 43.4 µM (inactive) | 
5 | CC(C)C1OC(=O)/C=C/C=C/C=C/C=C/C=C/CC(O)CC(O)CC(O)CC(O)CC(O)CC(O)CC(O)CC(O)/C=C/C1C (centres undefined) | > 100 µM (inactive) | > 100 µM (inactive) | > 100 µM (inactive) | > 100 µM (inactive) | > 100 µM (inactive) | > 100 µM (inactive) | > 100 µM (inactive) | > 100 µM (inactive) | > 100 µM (inactive) | > 100 µM (inactive) | > 100 µM (inactive) | > 100 µM (inactive) | > 100 µM (inactive) | > 100 µM (inactive) | > 100 µM (inactive) |  | > 100 µM (inactive) | > 100 µM (inactive) | > 100 µM (inactive) | 
6 | COc1cc(/C=C2\N=C(c3ccccc3)N(c3cc4cc(Sc5ccccc5)ccc4[nH]3)C2=O)ccc1O | 2.12 µM (inactive) | 7.87 µM (inactive) | 2.54 µM (inactive) |  | 35 µM (inactive) |  | 11.7 µM (inactive) | > 50 µM (inactive) | 2.36 µM (inactive) |  | 3.51 µM (inactive) | 5.82 µM (inactive) |  | 2.49 µM (inactive) | 12.3 µM (inactive) |  | > 50 µM (inactive) | > 50 µM (inactive) |  | 5.52 µM (inactive)
7 | O=C(CNc1ccccn1)Nn1cnc2ccc(S(=O)(=O)Nc3ccccn3)cc2c1=O | > 100 µM (inactive) | > 100 µM (inactive) |  | > 100 µM (inactive) | > 100 µM (inactive) | > 100 µM (inactive) | > 100 µM (inactive) | > 100 µM (inactive) | > 100 µM (inactive) | > 100 µM (inactive) | > 100 µM (inactive) | > 100 µM (inactive) | > 100 µM (inactive) | > 100 µM (inactive) | > 100 µM (inactive) | > 100 µM (inactive) | > 100 µM (inactive) | > 100 µM (inactive) | > 100 µM (inactive) | 
8 | Cc1cc2c(=O)cc(-c3ccc(O)cc3)oc2c(C(=O)O)c1C | > 100 µM (inactive) | > 100 µM (inactive) | > 100 µM (inactive) | > 100 µM (inactive) | > 100 µM (inactive) | > 100 µM (inactive) |  | > 100 µM (inactive) | > 100 µM (inactive) | > 100 µM (inactive) | > 100 µM (inactive) | > 100 µM (inactive) | > 100 µM (inactive) | > 100 µM (inactive) | > 100 µM (inactive) |  | > 100 µM (inactive) | > 100 µM (inactive) | > 100 µM (inactive) | 
9 | C=C(Cl)/C(=C\Cl)CCC(Br)C(C)C (centres undefined) | > 100 µM (inactive) | > 100 µM (inactive) | > 100 µM (inactive) | > 100 µM (inactive) | 29.2 µM (inactive) | > 100 µM (inactive) | > 100 µM (inactive) | > 100 µM (inactive) | > 100 µM (inactive) | > 100 µM (inactive) | > 100 µM (inactive) | > 100 µM (inactive) | > 100 µM (inactive) | 37.9 µM (inactive) |  | > 100 µM (inactive) | > 100 µM (inactive) | > 100 µM (inactive) | > 100 µM (inactive) | 
10 | O=C1C(/C=C/c2ccc(Cl)cc2)=NNC2N1N=C1NC(=O)C3(NN12)c1ccccc1-c1ccccc13 (centres undefined) | < 0.01 µM (active) | > 100 µM (inactive) | > 100 µM (inactive) | > 100 µM (inactive) | > 100 µM (inactive) | > 100 µM (inactive) | > 100 µM (inactive) | > 100 µM (inactive) | > 100 µM (inactive) | > 100 µM (inactive) | 66.2 µM (inactive) | > 100 µM (inactive) |  |  | > 100 µM (inactive) | 65.6 µM (inactive) |  | > 100 µM (inactive) | > 100 µM (inactive) | 
11 | N#CC1(C#N)C2C=CC(c3coc4cccc2c34)C1(C#N)C#N (centres undefined) | 3.01 µM (inactive) | 11 µM (inactive) | 15.4 µM (inactive) | 22.6 µM (inactive) | 31.8 µM (inactive) | 19.9 µM (inactive) |  | 17 µM (inactive) | 19.4 µM (inactive) | 7.05 µM (inactive) | 18.9 µM (inactive) | 15.2 µM (inactive) | 4.86 µM (inactive) | 1.67 µM (inactive) | 3.47 µM (inactive) |  | 18.3 µM (inactive) | 18.8 µM (inactive) | 31.7 µM (inactive) | 
12 | C=C(CN(CC(=C)C(=O)c1ccccc1)C(C)(C)C)C(=O)c1ccccc1 | 2.1 µM (inactive) | 16.3 µM (inactive) | 16.8 µM (inactive) |  | 11.6 µM (inactive) | 28.3 µM (inactive) | 19.6 µM (inactive) | 19.6 µM (inactive) | 20.6 µM (inactive) | 13.8 µM (inactive) | 18.1 µM (inactive) | 19 µM (inactive) | 4.38 µM (inactive) | 2.49 µM (inactive) | 20.5 µM (inactive) |  | 13 µM (inactive) | 23.3 µM (inactive) | 18.2 µM (inactive) | 
13 | COCCN(C(=O)c1ccccc1)C1CCC2(SCCS2)c2[nH]c3ccccc3c21 (centres undefined) | 29.7 µM (inactive) | 40.2 µM (inactive) | 22.9 µM (inactive) | > 100 µM (inactive) |  | 42.7 µM (inactive) | > 100 µM (inactive) | > 100 µM (inactive) | 29.6 µM (inactive) | 79.1 µM (inactive) | 49.4 µM (inactive) | 51.4 µM (inactive) | 20.2 µM (inactive) | 18.5 µM (inactive) | 25.6 µM (inactive) | 29.4 µM (inactive) | 28.5 µM (inactive) | 89.5 µM (inactive) |  | 
14 | CC1(C)C(=O)C(O)=CC2C1=CCC1C2(C)C(=O)CC2(C)C(C(C)(O)C(=O)CC(O)C(C)(C)O)C(O)CC12C (centres undefined) | 4 µM (inactive) | 4.98 µM (inactive) | 2.84 µM (inactive) | 4.63 µM (inactive) | 2.82 µM (inactive) | 4.67 µM (inactive) |  | 25.2 µM (inactive) | 3.39 µM (inactive) | 2.54 µM (inactive) | 3.35 µM (inactive) | 3.35 µM (inactive) | 3.4 µM (inactive) | 17.1 µM (inactive) | 12.6 µM (inactive) |  | 9.14 µM (inactive) | 3.13 µM (inactive) | 2.61 µM (inactive) | 
15 | N#Cc1nc(-c2cnccn2)oc1N | > 100 µM (inactive) | > 100 µM (inactive) | > 100 µM (inactive) | > 100 µM (inactive) |  |  | > 100 µM (inactive) | > 100 µM (inactive) |  | > 100 µM (inactive) | > 100 µM (inactive) |  | 49.7 µM (inactive) | > 100 µM (inactive) | > 100 µM (inactive) | > 100 µM (inactive) | > 100 µM (inactive) | > 100 µM (inactive) | > 100 µM (inactive) | 
16 | COc1ccc(C2=C(OC(C)=O)c3cccn3-c3ccc(Cl)cc3S2)cc1 | 2.33 µM (inactive) | 3.74 µM (inactive) | 4.93 µM (inactive) | 3.97 µM (inactive) | 6.22 µM (inactive) | 3.05 µM (inactive) | 9.66 µM (inactive) |  |  | > 10 µM (inactive) | 3.75 µM (inactive) | 5.43 µM (inactive) | 2.37 µM (inactive) | 2.34 µM (inactive) | 6.53 µM (inactive) |  | 3.63 µM (inactive) |  |  | 5.37 µM (inactive)
